Consider one compound from paper PMC11897194 (Nature Communications, 2025).

For this experiment, the target named is T1, EfAvs5 (Kosakonia oryzae, UniProt A0AA94GZI5).
T1 sequence (A0AA94GZI5 1-849): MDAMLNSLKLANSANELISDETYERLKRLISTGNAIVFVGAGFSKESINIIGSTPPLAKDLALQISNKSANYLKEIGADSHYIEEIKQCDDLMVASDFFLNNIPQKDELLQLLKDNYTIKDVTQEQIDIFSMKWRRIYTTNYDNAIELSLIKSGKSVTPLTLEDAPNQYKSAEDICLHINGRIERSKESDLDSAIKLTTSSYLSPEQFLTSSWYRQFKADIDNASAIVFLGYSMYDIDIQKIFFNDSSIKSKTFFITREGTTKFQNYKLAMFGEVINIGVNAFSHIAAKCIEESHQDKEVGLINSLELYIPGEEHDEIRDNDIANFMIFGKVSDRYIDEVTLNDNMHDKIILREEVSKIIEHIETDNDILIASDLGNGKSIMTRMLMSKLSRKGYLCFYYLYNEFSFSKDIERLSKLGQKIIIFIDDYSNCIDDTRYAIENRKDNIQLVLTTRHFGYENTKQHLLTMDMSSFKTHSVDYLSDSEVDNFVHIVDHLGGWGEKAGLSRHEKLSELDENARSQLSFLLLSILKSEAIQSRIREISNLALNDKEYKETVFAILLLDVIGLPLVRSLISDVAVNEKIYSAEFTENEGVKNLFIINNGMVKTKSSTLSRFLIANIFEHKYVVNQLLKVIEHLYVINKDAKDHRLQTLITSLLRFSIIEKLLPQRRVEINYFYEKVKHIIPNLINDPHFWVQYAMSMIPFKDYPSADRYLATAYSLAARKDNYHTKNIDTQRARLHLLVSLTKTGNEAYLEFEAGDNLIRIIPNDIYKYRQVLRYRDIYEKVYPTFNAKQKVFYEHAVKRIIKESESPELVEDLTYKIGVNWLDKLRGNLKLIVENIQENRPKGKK
The experiment is described as follows: biochemical.

Regarding `Nc1ncnc2c1ncn2[C@@H]1O[C@H](COP(=O)(O)OP(=O)(O)OP(=O)(O)O)[C@@H](O)[C@H]1O` [ATP], the Ki worked out at 1740 ± 98 µM.

As a reminder, the Ki is a dissociation constant, usually derived from enzyme kinetics or from competition with a known ligand. A high value points to a looser hold on the target.
